Measured values taken from patent US20100222319A1, “NICOTINAMIDE DERIVATIVES, PREPARATION THEREOF AND THERAPEUTIC USE THEREOF” (SANOFI-AVENTIS, priority 2007, published 2010).

Columns and labels:
PC3 (ATCC-CRL1435) = assay: MTS cell proliferation and viability test on PC3 tumour line; format: cell-based; details: incubating the test compound for 72 hours, read-out: IC50 PC3 (concentration which results in 50% loss of cell proliferation and viability)
Procedure: (§1) The compounds described in Table I have formed the subject of pharmacological trials which make it possible to determine the anticancer activity. They were tested in vitro on the following tumour lines: HCT116 (ATCC-CCL247) and PC3 (ATCC-CRL1435). The cell proliferation and viability were determined in a test using 3-(4,5-dimethylthiazol-2-yl)-5-(3-carboxymethoxyphenyl)-2-(4-sulphophenyl)-2H-tetrazolium (MTS) according to Fujishita T. et al., Oncology, 2003, 64(4), 399-406. In this test, the mitochondrial capacity of the living cells to convert MTS to a coloured compound after incubating the test compound for 72 hours is measured. The concentration of compound which results in 50% loss of cell proliferation and viability is recorded as IC50.

HCT116 (ATCC-CCL247) = assay: MTS cell proliferation and viability test on HCT116 tumour line; format: cell-based; details: Homo sapiens, HCT-116, incubating the test compound for 72 hours, read-out: IC50 HCT116 (concentration which results in 50% loss of cell proliferation and viability)
Procedure: as §1

Row | SMILES | melting point | IC50 (PC3 (ATCC-CRL1435)) | IC50 (HCT116 (ATCC-CCL247))
1 | CCNc1nc(-c2ccc(NC(=O)NCc3cccnc3)cc2)ccc1C(=O)NC [Compound 1, 2-Ethylamino-N-methyl-6-[4-(3-pyridin-3-ylmethyl-ureido)-phenyl]-nicotinamide] | 260 to 263 °C |  | 
2 | CNC(=O)c1ccc(-c2ccc(NC(=O)NCc3cccnc3)cc2)nc1N [Compound 3, 2-Amino-N-methyl-6-[4-(3-pyridin-3-ylmethyl-ureido)-phenyl]-nicotinamide] | 234 to 236 °C |  | 
3 | CCNc1nc(-c2ccc(NC(=O)NCc3cccnc3)cc2)ccc1C(=O)NCCN1CCNCC1 [Compound 5, 2-Ethylamino-N-(2-piperazin-1-yl-ethyl)-6-[4-(3-pyridin-3-ylmethyl-ureido)-phenyl]-nicotinamide] |  | 0.8 nM | 1.8 nM
4 | CCNc1nc(-c2ccc(NC(=O)NCc3cccnc3)cc2)ccc1C(=O)NCCN(C(C)C)C(C)C [Compound 8, N-(2-Diisopropylamino-ethyl)-2-ethylamino-6-[4-(3-pyridin-3-ylmethyl-ureido)-phenyl]-nicotinamide] | 160 to 162 °C |  | 
5 | CNC(=O)c1ccc(-c2ccc(NC(=O)NCc3cccnc3)cc2)nc1NCc1cccnc1 [Compound 12, N-Methyl-2-[(pyridin-3-ylmethyl)-amino]-6-[4-(3-pyridin-3-ylmethyl-ureido)-phenyl]-nicotinamide] |  | 113 nM | 19 nM
6 | CCNc1nc(-c2ccc(NC(=O)NCc3cccnc3)cc2)ccc1C(=O)NCCN1CCCCC1 [Compound 13, 2-Ethylamino-N-(2-piperidin-1-yl-ethyl)-6-[4-(3-pyridin-3-ylmethyl-ureido)-phenyl]-nicotinamide] | 164 to 165 °C | 0.2 nM | 0.1 nM
7 | CNC(=O)c1ccc(-c2ccc(NC(=O)NCc3cccnc3)cc2)nc1NCc1ccncc1 [Compound 15, N-Methyl-2-[(pyridin-4-ylmethyl)-amino]-6-[4-(3-pyridin-3-ylmethyl-ureido)-phenyl]-nicotinamide] | 218 to 219 °C |  | 
8 | CNC(=O)c1ccc(-c2ccc(NC(=O)NCc3cccnc3)cc2)nc1NCCN1CCCCC1 [Compound 17, N-Methyl-2-(2-piperidin-1-yl-ethylamino)-6-[4-(3-pyridin-3-ylmethyl-ureido)-phenyl]-nicotinamide] |  | 266 nM | 294 nM
9 | CNC(=O)c1ccc(-c2ccc(NC(=O)NCc3cccnc3)cc2)nc1NCc1ccccc1 [Compound 19, 2-Benzylamino-N-methyl-6-[4-(3-pyridin-3-ylmethyl-ureido)-phenyl]-nicotinamide] |  | 28 nM | 34 nM
10 | CCNc1nc(-c2ccc(NC(=O)NCc3ccc(N)nc3)cc2)ccc1C(=O)NC [Compound 21, 6-{-4-[3-(6-Amino-pyridin-3-ylmethyl)-ureido]-phenyl}-2-ethylamino-N-methyl-nicotinamide] | 223 to 226 °C |  | 
11 | CNC(=O)c1ccc(-c2ccc(NC(=O)NCc3cccnc3)cc2)nc1Nc1ccccc1 [Compound 22, N-Methyl-2-phenylamino-6-[4-(3-pyridin-3-ylmethyl-ureido)-phenyl]-nicotinamide] | 234 to 236 °C | 0.1 nM | 0.1 nM
12 | CNC(=O)c1ccc(-c2ccc(NC(=O)NCc3cccnc3)cc2)nc1NC1CC1 [Compound 23, 2-Cyclopropylamino-N-methyl-6-[4-(3-pyridin-3-ylmethyl-ureido)-phenyl]-nicotinamide] |  | 0.1 nM | 0.1 nM
13 | CCN(CC)c1nc(-c2ccc(NC(=O)NCc3cccnc3)cc2)ccc1C(=O)NC [Compound 25, 2-Diethylamino-N-methyl-6-[4-(3-pyridin-3-ylmethyl-ureido)-phenyl]-nicotinamide] |  | 1.7 nM | 2.2 nM
14 | CCNc1nc(-c2ccc(NC(=O)NCc3cccnc3)cc2)ccc1C(=O)NCCO [Compound 26, 2-Ethylamino-N-(2-hydroxy-ethyl)-6-[4-(3-pyridin-3-ylmethyl-ureido)-phenyl]-nicotinamide] |  | 4.4 nM | 6.3 nM
15 | CCNc1nc(-c2ccc(NC(=O)OCc3cccnc3)cc2)ccc1C(=O)NC [Compound 29, [4-(6-Ethylamino-5-methylcarbamoyl-pyridin-2-yl)-phenyl]-carbamic acid pyridin-3-ylmethyl ester] | 234 to 235 °C |  | 
16 | O=C(NCc1cccnc1)Nc1ccc(-c2ccc(C(=O)NCCN3CCCC3)c(Nc3ccccc3)n2)cc1 [Compound 33, 2-Phenylamino-6-[4-(3-pyridin-3-ylmethyl-ureido)-phenyl]-N-(2-pyrrolidin-1-yl-ethyl)-nicotinamide] |  | 0.3 nM | 0.37 nM
17 | CCNc1nc(-c2ccc(NC(=O)NCc3cccnc3)cc2)ncc1C(=O)NC [Compound 47, 4-Ethylamino-2-[4-(3-pyridin-3-ylmethyl-ureido)-phenyl]-pyrimidine-5-carboxylic acid methylamide] |  | 10 nM | 11 nM
18 | CNC(=O)c1ccc(-c2ccc(NC(=O)NCc3cccnc3)cc2)nc1N1CCCC1 [Compound 49, N-Methyl-6-[4-(3-pyridin-3-ylmethyl-ureido)-phenyl]-2-pyrrolidin-1-yl-nicotinamide] |  | 316 nM | 331 nM
19 | CNC(=O)c1ccc(-c2ccc(NC(=O)NCc3cccnc3)cc2)nc1NCCOC [Compound 51, 2-(2-Methoxy-ethylamino)-N-methyl-6-[4-(3-pyridin-3-ylmethyl-ureido)-phenyl]-nicotinamide] |  | 78 nM | 77 nM
20 | CCNc1cc(-c2ccc(NC(=O)NCc3cccnc3)cc2)ncc1C(=O)NC [Compound 55, 4-Ethylamino-N-methyl-6-[4-(3-pyridin-3-ylmethyl-ureido)-phenyl]-nicotinamide] |  | 45 nM | 35 nM
21 | CCNc1cc(-c2ccc(NC(=O)NCc3cccnc3)cc2)ccc1C(=O)NC [Compound 62, 3-Ethylamino-4′-(3-pyridin-3-ylmethyl-ureido)-biphenyl-4-carboxylic acid methylamide] |  | 1.2 nM | 2.5 nM
22 | CCNc1nc(-c2ccc(NC(=O)/C=C/c3cccnc3)cc2)ccc1C(=O)NCCN(C(C)C)C(C)C [Compound 74, N-(2-Diisopropylamino-ethyl)-2-ethylamino-6-[4-((E)-3-pyridin-3-yl-acryloylamino)-phenyl]-nicotinamide] |  | 21 nM | 116 nM
23 | CCNc1nc(-c2ccc(NC(=O)NCc3ccc(N)nc3)cc2)ccc1C(=O)NCCN1CCCCC1 [Compound 81, 6-{-4-[3-(6-Amino-pyridin-3-ylmethyl)-ureido]-phenyl}-2-ethylamino-N-(2-piperidin-1-yl-ethyl)-nicotinamide] |  | 0.1 nM | 0.1 nM
24 | CCNc1nc(-c2ccc(NC(=O)NCc3ccc(N)nc3)cc2)ccc1C(=O)NCCN1CC[S+]([O-])CC1 [Compound 103, 6-{-4-[3-(6-Amino-pyridin-3-ylmethyl)-ureido]-phenyl}-2-ethylamino-N-[2-(1-oxo-1-thiomorpholin-4-yl)-ethyl]-nicotinamide] |  | 3 nM | 1.8 nM
25 | CCNc1nc(-c2ccc(NC(=O)NCc3ccc(NC(=O)C(C)C)nc3)cc2)ccc1C(=O)NCCN1CCCCC1 [Compound 107, 2-Ethylamino-6-{4-[3-(6-isobutyrylamino-pyridin-3-ylmethyl)-ureido]-phenyl}-N-(2-piperidin-1-yl-ethyl)-nicotinamide] |  | 105 nM | 221 nM
26 | CCNc1nc(-c2ccc(NC(=O)NCc3ccc(NC(C)C)nc3)cc2)ccc1C(=O)NCCN1CCCCC1 [Compound 108, 2-Ethylamino-6-{-4-[3-(6-isopropylamino-pyridin-3-ylmethyl)-ureido]-phenyl}-N-(2-piperidin-1-yl-ethyl)-nicotinamide] |  | 345 nM | 271 nM
27 | CCNc1nc(-c2ccc(NC(=O)NCc3ccc(N)nc3)cc2)ccc1C(=O)NCCN1C[C@@H](C)O[C@@H](C)C1 [Compound 114, 6-{-4-[3-(6-Amino-pyridin-3-ylmethyl)-ureido]-phenyl}-N-[2-(cis-2,6-dimethyl-morpholin-4-yl)-ethyl]-2-ethylamino-nicotinamide] |  | 0.1 nM | 0.1 nM
